Source: PubChem BioAssay (NCI)
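At the GI50, growth is halved. TGI marks complete inhibition of growth.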

Assays:
Experiment in all cases: NCI anticancer screen, dose series, 384-well format
[1] = test system: ACHN renal
[2] = test system: BT-549 breast
[3] = test system: CAKI-1 renal
[4] = test system: CCRF-CEM leukemia
[5] = test system: COLO 205 colon
[6] = test system: EKVX NSCLC
[7] = test system: HCC-2998 colon
[8] = test system: HCT-116 colon
[9] = test system: HCT-15 colon
[10] = test system: HOP-62 NSCLC
[11] = test system: HOP-92 NSCLC
[12] = test system: HT29 colon
[13] = test system: IGROV1 ovarian
[14] = test system: K-562 leukemia
[15] = test system: LOX IMVI melanoma
[16] = test system: M14 melanoma
[17] = test system: MALME-3M melanoma
[18] = test system: MCF7 breast
[19] = test system: MDA-MB-231 breast
[20] = test system: MDA-MB-468 breast
[21] = test system: MOLT-4 leukemia
[22] = test system: NCI-H226 lung
[23] = test system: NCI-H23 lung
[24] = test system: NCI-H322M lung
[25] = test system: NCI-H460 NSCLC
[26] = test system: NCI-H522 lung
[27] = test system: NCI/ADR-RES ovarian
[28] = test system: OVCAR-3 ovarian
[29] = test system: OVCAR-4 ovarian
[30] = test system: OVCAR-5 ovarian
[31] = test system: OVCAR-8 ovarian
[32] = test system: PC-3 prostate
[33] = test system: RXF 393 renal
[34] = test system: SF-268 CNS
[35] = test system: SF-295 CNS
[36] = test system: SF-539 CNS
[37] = test system: SK-MEL-5 melanoma
[38] = test system: SK-OV-3 ovarian
[39] = test system: SN12C renal
[40] = test system: SNB-75 CNS
[41] = test system: SR leukemia
[42] = test system: SW-620 colon
[43] = test system: TK-10 renal
[44] = test system: U251 glioblastoma
[45] = test system: UACC-257 melanoma
[46] = test system: UACC-62 melanoma
[47] = test system: UO-31 renal

Molecule C[C@@H](Oc1cc(-c2cnn(C3CCNCC3)c2)cnc1N)c1c(Cl)cc(F)cc1Cl has a GI50 [1] of 1.89 µM, a TGI [1] of 5.77 µM and a GI50 [2] of 1.85 µM. For the same molecule, the TGI [2] was 3.45 µM, the GI50 [3] was 1.35 µM and the TGI [3] was 2.98 µM. The GI50 [4] was 0.277 µM, the TGI [4] was 0.66 µM and the GI50 [5] was 0.971 µM. The TGI [5] was 2.39 µM, the GI50 [6] was 2.2 µM and the TGI [6] was 6.7 µM. For the same molecule, the GI50 [7] was 2.21 µM, the TGI [7] was 4.91 µM and the GI50 [8] was 0.728 µM. It also gave a TGI [8] of 1.97 µM, a GI50 [9] of 1.72 µM and a TGI [9] of 5.47 µM. The GI50 [10] was 2.16 µM, the TGI [10] was 6.37 µM and the GI50 [11] was 1.03 µM. The TGI [11] was 2.36 µM, the GI50 [12] was 1.02 µM and the TGI [12] was 2.3 µM. The GI50 [13] was 2.77 µM, the TGI [13] was 7.26 µM and the GI50 [14] was 0.131 µM. The TGI [14] was 0.262 µM, the GI50 [15] was 1.33 µM and the TGI [15] was 2.63 µM. For the same molecule, the GI50 [16] was 1.49 µM, the TGI [16] was 2.83 µM and the GI50 [17] was 1.23 µM. The TGI [17] was 2.48 µM, the GI50 [18] was 0.614 µM and the TGI [18] was 1.86 µM. The GI50 [19] was 1.55 µM, the TGI [19] was 3.49 µM and the GI50 [20] was 0.725 µM. It also gave a TGI [20] of 1.56 µM, a GI50 [21] of 0.196 µM and a TGI [21] of 0.377 µM. The GI50 [22] was 1.25 µM, the TGI [22] was 3.25 µM and the GI50 [23] was 0.641 µM. It also gave a TGI [23] of 2.42 µM, a GI50 [24] of 2.88 µM and a TGI [24] of 8.37 µM. For the same molecule, the GI50 [25] was 0.529 µM, the TGI [25] was 2.65 µM and the GI50 [26] was 3.21 µM. For the same molecule, the TGI [26] was 7.29 µM, the GI50 [27] was 6.36 µM and the TGI [27] was 16 µM. It also gave a GI50 [28] of 2.54 µM, a TGI [28] of 6.47 µM and a GI50 [29] of 5.81 µM. It also gave a TGI [29] of 11 µM, a GI50 [30] of 2.22 µM and a TGI [30] of 6.92 µM. It also gave a GI50 [31] of 2.03 µM, a TGI [31] of 5.41 µM and a GI50 [32] of 1.94 µM. For the same molecule, the TGI [32] was 5.57 µM, the GI50 [33] was 1.94 µM and the TGI [33] was 3.61 µM. The GI50 [34] was 2.21 µM, the TGI [34] was 5.32 µM and the GI50 [35] was 1.21 µM. The TGI [35] was 4.3 µM, the GI50 [36] was 1.7 µM and the TGI [36] was 3.65 µM. The GI50 [37] was 1.39 µM, the TGI [37] was 2.7 µM and the GI50 [38] was 5.4 µM. It also gave a TGI [38] of 9.79 µM, a GI50 [39] of 2.11 µM and a TGI [39] of 8.7 µM. It also gave a GI50 [40] of 1.9 µM, a TGI [40] of 3.85 µM and a GI50 [41] of 0.0423 µM. For the same molecule, the TGI [41] was 0.0738 µM, the GI50 [42] was 1.25 µM and the TGI [42] was 4.65 µM. For the same molecule, the GI50 [43] was 3.66 µM, the TGI [43] was 7.63 µM and the GI50 [44] was 2.78 µM. The TGI [44] was 7.16 µM, the GI50 [45] was 1.67 µM and the TGI [45] was 3.04 µM. The GI50 [46] was 1.39 µM, the TGI [46] was 3.09 µM and the GI50 [47] was 2.64 µM. It also gave a TGI [47] of 6.43 µM.
